Entries after “also recorded” stand apart in the source; their conditions may differ.
Experiments:
[1] = biological target: T1, Snake venom PLA2 (Agkistrodon piscivorus piscivorus) (Agkistrodon piscivorus piscivorus, UniProt P51972); assay: PLA2-controlled release of calcein across non-hydrolysable D-O-SPC target membrane (carrier liposomes or micelles); format: biochemical; details: carrier liposomes 25 μM; 25 nM PLA2; 37° C.; FIG. 12a
T1 construct: Purified snake-venom phospholipase A2; from tissue
T1 sequence (P51972 1-123): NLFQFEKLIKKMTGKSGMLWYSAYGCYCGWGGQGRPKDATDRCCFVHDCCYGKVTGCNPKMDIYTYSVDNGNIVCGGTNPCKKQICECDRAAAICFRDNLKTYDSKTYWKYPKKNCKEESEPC
Description: Multilamellar model membrane target liposomes were made in the presence of fluorescent calcein in a self-quenching concentration of 20 mM by hydrating a film of 1,2-O-dioctadecyl-sn-glycero-3-phosphatidylcholines (D-O-SPC) in a HEPES buffer solution at pH=7.5 for one hour at 10° C. above the phase transition temperature (Tm=55° C.). […] The unilamellar liposomes were rapidly cooled to a temperature below the transition temperature, and the calcein-containing liposomes were separated from free calcein using a chromatographic column packed with Sephadex G-50. […] Calcein release from the target liposomes is determined by measuring the fluorescent intensity at 520 nm after excitation at 492 nm.
Unilamellar liposomes were made by extruding the multilamellar liposomes ten times through two stacked 100 nm polycarbonate filters.

[2] = tested on: human red blood cells (RBC); assay: Hemolysis assay; details: 37° C., 20 hours, FIG. 6
Description: Briefly, each sample was serially diluted with phosphate buffered saline (PBS), and 0.5 ml of each dilute suspension was mixed with 0.5 ml washed human red blood cells (RBC) [4% in PBS (v/v)]. Sample and standard were placed in a 37° C. incubator and agitated for 20 hours. Tubes were centrifuged at low speed (2000×G) for 10 minutes and 200 μl of the supernatant was quantitated by absorbance at 550 nm. 100 percent hemolysis was defined as the maximum amount of hemolysis obtained from the detergent Triton X-100.
The lipids were hydrated in phosphate buffered saline (PBS). 1-O-octadecyl-2-O-methyl-sn-glycero-3-phosphocholine (ET-18-OCH3) in PBS was included in the assay as a reference.
Briefly, each sample was serially diluted with PBS, and 0.5 ml of each dilute suspension of 1-O-DPPC liposomes were mixed with 0.5 ml washed human red blood cells (RBC) [4% in PBS (v/v)]. For controls, 0.5 ml of the red blood cell suspension was mixed with either 0.5 ml buffer solution (negative hemolysis control) or 0.5 ml water (positive hemolysis control). Samples and standard were placed in a 37° C. incubator and agitated for 20 hours. Tubes were centrifuged at low speed (2000×G) for 10 minutes to form RBCs pellets. 200 μl of the supernatant was quantitated by absorbance at 550 nm using a Perkin-Elmer 320 scanning spectrophotometer. […]

[3] = i.v., 50 mg/kg
Description: Groups of mice (n=5/group; weight 18-22 g) were treated i.v. with buffer (PBS), ET-18-OCH3 (50 mg/kg), and liposomes composed of 1-O-DPPC with 5 mol % 1-O-DPPE-PEG2000 (68.7 and 137.5 mg/kg). 30 min after injection, 100 μl blood was collected into heparinised tubes directly from decapitated, CO2-anesthetised mice. The blood was centrifuged at 500×G for 10 min, and plasma was removed and stored at −20° C. until analysed.
25 μl plasma was mixed with 2,5 ml PBS or 2.5 ml 10% triton X-100.

extracellular PLA2 = assay: Effect of cholesterol incorporated into liposomes on extracellular PLA2 activity (data not shown); format: biochemical
Text: Short-chain phospholipids, such as didecanoyl phosphatidylcholine (DCPC), activate extracellular PLA2.

[4] = Calcein release across target membrane on adding lyso-phospholipid and fatty acid, in the absence of PLA2; details: target membranes 25 μM; 39° C.; pH 7.5; FIG. 13
Description: Total release after 20 min of the fluorescent model drug and/or contrast agent calcein across the target membrane as a function of adding increasing amounts of lyso-palmitoyl phospholipid and palmitic acid, separately, and in a 1:1 mixture. The concentration of the target membranes is 25 μM in a HEPES buffer with pH=7.5 at a temperature of 39° C.
The experimental model system consists of bare liposomes, polymer-coated liposome carrier and a model target membrane. The carrier is a 100 nm unilamellar liposome made of dipalmitoyl phosphatidylcholine lipids (DPPC) with 2.5 mol % lipopolymer of the type dipalmitoyl phosphatidylethanolamine (DPPE)-PEG2000. The target membrane is another liposome made of 1,2-O-dioctadecyl-sn-glycero-phosphatidylcholine (D-O-SPC) which is a phospholipid where the acyl linkages of the stearoyl chains are ether bonds. In contrast to DPPC, D-O-SPC is inert towards PLA2-catalysed hydrolysis thereby mimicking the stability of an intact target cell membrane toward degradation by its own enzymes. […] The permeation of calcein across the D-O-SPC target membrane is subsequently monitored by the increase in fluorescence. […]

[5] = biological target: T2, phospholipase A2 (A. piscivorus piscivorus) (Agkistrodon piscivorus piscivorus, UniProt P51972); details: 0.150 mM micelles, 150 nM PLA2, 45° C.
T2 sequence (P51972 1-123): T1 sequence (P51972 1-123)
Description: The hydrolysis of micelles composed DSPE-PEG750 was followed by analysis of the amount of stearic acid generated. The catalytic reaction was initiated by adding 8.9 μL of a 42 μM PLA2 (150 nM) stock solution to 2.5 ml a thermostated micelle suspension of DSPE-PEG750 (0.150 mM) equilibrated at 45° C. for 600 seconds prior to addition of PLA2. The characteristic burst behaviour of PLA2 towards the micelles is signalled by a sudden increase in the intrinsic fluorescence from PLA2 at 340 nm after excitation at 285 nm followed by a concomitant decrease in the 90° light scattering from the lipid suspension (Hønger et al., Biochemistry 35, 9003-9006). Samples for HPLC analysis of the amount of stearic acid generated were taken before adding PLA2 and 100 sec after the observed lag-time. […] HPLC analysis was made using a 5 μm diol column, a mobile phase composed of chloroform/methanol/water (730:230:30, v/v) and an evaporative light scattering detector (see example 2).

In the case of CCCCCCCCCC(=O)OC[C@H](COP(=O)([O-])OCC[N+](C)(C)C)OC(=O)CCCCCCCCC [DCPC, didecanoyl phosphatidylcholine], the “rate of calcein release across target membrane versus bare DPPC carriers” value [1] is reported as “very fast; also recorded: further augmentation of the rate of release”.
For CCCCCCCCCCCCCCCCCCOC[C@H](COP(=O)([O-])OCC[N+](C)(C)C)OC [ET-18-OCH3], the “hemolysis at low concentrations” value [2] was “significant degree of hemolysis” and the “outcome of treated mice (in words)” value [3] was “died within the 30 minutes period”.
With CC(C)CCC[C@@H](C)[C@H]1CC[C@H]2[C@@H]3CC=C4C[C@@H](O)CC[C@]4(C)[C@H]3CC[C@]12C [cholesterol] the “effect on extracellular PLA2” value (extracellular PLA2; large amount (≈20 mol %) incorporated into liposomes) was “deactivated” and the “effect on extracellular PLA2” value (extracellular PLA2; small amount (≈3 mol %)) was “activates”.
In the case of CCCCCCCCCCCCCCCC(=O)O [fatty acid, palmitic acid], the “rate of calcein release across target membrane in the absence of PLA2” value [4] is reported as “increased rate of calcein release”.
In the case of “di-octadecanoyl-sn-glycero-3-phosphoethanolamine-N-[methoxy(polyethylene glycol)-750 [DSPE-PEG750]”, the “percentage hydrolysis of DSPE-PEG750 to lyso-SPE-PEG750 and stearic acid” value ([5]; 100 sec after lag-time) is reported as 100% and the observed lag time [5] is reported as 10 s.

From patent US7368254B2, “Lipid-based systems for targeting diagnostic agents” (Liplasome Pharma A/S, priority 2000, dated 2008)
